Measured values taken from ChEMBL document CHEMBL6083190, “Synthesis and mechanistic study of Aβ42 C-terminus domain derived tetrapeptides that inhibit Alzheimer's Aβ-aggregation-induced neurotoxicity” (Bioorg Med Chem Lett, 2024).
Active and inactive are the calls of the source. The calls are words filed in the database; no cut-off is given here. Non-standard residues stand in square brackets, D forms with d. Residues, ends and D or L forms follow the SMILES beside them. Aib = CC(C)(N)C(=O)O

Tests used:
[1] = target: Amyloid-beta precursor protein (Homo sapiens) (UniProt P05067); experiment: Inhibition of amyloid beta (1 to 40) (unknown origin) self-aggregation assessed as beta-turn content at 1:5 amyloid-beta:compound concentration ratio incubated for 48 hrs by CD spectroscopy (reference value: 0 %); set-up: scale not given: the % may be the effect or the level left
Amyloid-beta precursor protein (Homo sapiens), sequence (P05067 whole entry): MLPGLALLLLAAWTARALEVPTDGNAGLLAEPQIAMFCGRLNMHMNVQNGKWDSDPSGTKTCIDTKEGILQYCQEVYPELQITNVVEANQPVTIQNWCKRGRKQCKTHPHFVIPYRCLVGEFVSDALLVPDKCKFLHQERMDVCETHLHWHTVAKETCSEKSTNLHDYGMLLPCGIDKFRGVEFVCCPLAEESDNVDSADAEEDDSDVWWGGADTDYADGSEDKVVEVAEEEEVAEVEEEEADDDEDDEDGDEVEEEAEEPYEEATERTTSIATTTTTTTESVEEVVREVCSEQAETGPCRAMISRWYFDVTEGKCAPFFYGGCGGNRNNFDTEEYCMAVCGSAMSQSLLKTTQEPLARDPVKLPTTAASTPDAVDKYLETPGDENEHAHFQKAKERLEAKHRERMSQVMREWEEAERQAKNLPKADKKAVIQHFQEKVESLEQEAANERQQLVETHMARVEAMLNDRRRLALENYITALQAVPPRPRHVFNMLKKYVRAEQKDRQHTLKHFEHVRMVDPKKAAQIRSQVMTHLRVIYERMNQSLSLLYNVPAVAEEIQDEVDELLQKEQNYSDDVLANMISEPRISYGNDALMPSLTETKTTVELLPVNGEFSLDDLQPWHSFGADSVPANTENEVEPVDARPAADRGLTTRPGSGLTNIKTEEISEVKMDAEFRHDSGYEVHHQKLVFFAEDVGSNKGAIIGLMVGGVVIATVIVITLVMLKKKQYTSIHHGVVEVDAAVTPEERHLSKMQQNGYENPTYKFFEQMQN

[2] = target: Amyloid-beta precursor protein (Homo sapiens) (UniProt P05067); experiment: Inhibition of amyloid beta (1 to 40)/amyloid beta (1 to 42) (unknown origin) self-aggregation assessed as alpha-helix content at 1:5 amyloid-beta:compound concentration ratio incubated for 48 hrs by CD spectroscopy (reference value: 0 %); set-up: scale not given: the % may be the effect or the level left
[3] = target: Amyloid-beta precursor protein (Homo sapiens) (UniProt P05067); experiment: Inhibition of amyloid beta (1 to 40)/amyloid beta (1 to 42) (unknown origin) self-aggregation assessed as beta-turn content at 1:5 amyloid-beta:compound concentration ratio incubated for 48 hrs by CD spectroscopy (reference value: 29.2 %); set-up: scale not given: the % may be the effect or the level left
[4] = target: Amyloid-beta precursor protein (Homo sapiens) (UniProt P05067); experiment: Inhibition of amyloid beta (1 to 42) (unknown origin) self-aggregation assessed as reduction in polydispersity index measured after 7 days by dynamic light scattering analysis; conditions: time 7.0 day
[5] = target: Amyloid-beta precursor protein (Homo sapiens) (UniProt P05067); experiment: Inhibition of amyloid beta (1 to 42) (unknown origin) self-aggregation assessed as absence of fibrillar aggregates at 1:5 amyloid-beta:compound concentration ratio measured immediately by scanning transmission electron microscopic analysis
[6] = Inhibition of amyloid beta-induced neurotoxicity in rat PC-12 cells at 4 uM by MTT assay relative to control; format: functional
[7] = target: Amyloid-beta precursor protein (Homo sapiens) (UniProt P05067); experiment: Inhibition of amyloid beta (1 to 42 ) (unknown origin) self aggregation in liposome-mimicked rat neuronal membrane assessed as fluorescence quenching at 1:5 amyloid-beta:compound concentration ratio incubated for 72 hrs by ANS fluorescence spectra; format: cell membranes; conditions: Neuron
[8] = target: Amyloid-beta precursor protein (Homo sapiens) (UniProt P05067); experiment: Inhibition of amyloid beta (1 to 42) (unknown origin) self-aggregation assessed as random coil content at 1:5 amyloid-beta:compound concentration ratio incubated for 48 hrs by CD spectroscopy (reference value: 0 %); set-up: scale not given: the % may be the effect or the level left
[9] = target: Amyloid-beta precursor protein (Homo sapiens) (UniProt P05067); experiment: Inhibition of amyloid beta (1 to 42) (unknown origin) self aggregation at 2 uM by ThT fluorescence assay relative to control
PC-12 [10] = experiment: Protection against amyloid beta-induced neurotoxicity in rat PC-12 cells assessed as cell viability at 10 uM by MTT assay (reference value: 63.6 %); format: functional; conditions: read-out: Activity
[11] = target: Amyloid-beta precursor protein (Homo sapiens) (UniProt P05067); experiment: Inhibition of amyloid beta (1 to 40) (unknown origin) self-aggregation assessed as beta-sheet content at 1:5 amyloid-beta:compound concentration ratio incubated for 48 hrs by CD spectroscopy (reference value: 59.7 %); set-up: scale not given: the % may be the effect or the level left
PC-12 [12] = experiment: Protection against amyloid beta-induced neurotoxicity in rat PC-12 cells assessed as cell viability at 2 uM by MTT assay (reference value: 63.6 %); format: functional; conditions: read-out: Activity
[13] = target: Amyloid-beta precursor protein (Homo sapiens) (UniProt P05067); experiment: Inhibition of amyloid beta (1 to 42) (unknown origin) self aggregation at 2 to 10 uM by ThT fluorescence assay; conditions: dose 2-10 µM
[14] = target: Amyloid-beta precursor protein (Homo sapiens) (UniProt P05067); experiment: Inhibition of amyloid beta (1 to 42) (unknown origin) self-aggregation assessed as beta-sheet content at 1:5 amyloid-beta:compound concentration ratio incubated for 48 hrs by CD spectroscopy (reference value: 55.2 %); set-up: scale not given: the % may be the effect or the level left
[15] = Inhibition of amyloid beta-induced neurotoxicity in rat PC-12 cells at 2 uM by MTT assay relative to control; format: functional
PC-12 [16] = experiment: Protection against amyloid beta-induced neurotoxicity in rat PC-12 cells assessed as cell viability at 4 uM by MTT assay (reference value: 63.6 %); format: functional; conditions: read-out: Activity
[17] = target: Amyloid-beta precursor protein (Homo sapiens) (UniProt P05067); experiment: Inhibition of amyloid beta (1 to 40)/amyloid beta (1 to 42) (unknown origin) self-aggregation assessed as beta-sheet content at 1:5 amyloid-beta:compound concentration ratio incubated for 48 hrs by CD spectroscopy (reference value: 70.8 %); set-up: scale not given: the % may be the effect or the level left
[18] = target: Amyloid-beta precursor protein (Homo sapiens) (UniProt P05067); experiment: Inhibition of amyloid beta (1 to 42) (unknown origin) self-aggregation measured for 7 days by ThT fluorescence assay; conditions: time 7.0 day
[19] = target: Amyloid-beta precursor protein (Homo sapiens) (UniProt P05067); experiment: Inhibition of amyloid beta (1 to 42) (unknown origin) self aggregation at 10 uM by ThT fluorescence assay relative to control
[20] = target: Amyloid-beta precursor protein (Homo sapiens) (UniProt P05067); experiment: Inhibition of amyloid beta (1 to 40) (unknown origin) self-aggregation assessed as random coil content at 1:5 amyloid-beta:compound concentration ratio incubated for 48 hrs by CD spectroscopy (reference value: 40.3 %); set-up: scale not given: the % may be the effect or the level left
[21] = Cytotoxicity against rat PC-12 cells assessed as cell viability at 20 uM by MTT assay relative to control; format: toxicity, cell-based; conditions: read-out: Activity
[22] = target: Amyloid-beta precursor protein (Homo sapiens) (UniProt P05067); experiment: Inhibition of amyloid beta (1 to 40)/amyloid beta (1 to 42) (unknown origin) self-aggregation assessed as random coil content at 1:5 amyloid-beta:compound concentration ratio incubated for 48 hrs by CD spectroscopy (reference value: 0 %); set-up: scale not given: the % may be the effect or the level left
[23] = target: Amyloid-beta precursor protein (Homo sapiens) (UniProt P05067); experiment: Inhibition of amyloid beta (1 to 42 ) (unknown origin) self-aggregation assessed as appearance of peak at m/z 722.4940 at 1:5 amyloid-beta:compound concentration ratio incubated for 72 hrs by HRMS-ESI analysis
[24] = Inhibition of amyloid beta-induced neurotoxicity in rat PC-12 cells at 10 uM by MTT assay relative to control; format: functional
[25] = target: Amyloid-beta precursor protein (Homo sapiens) (UniProt P05067); experiment: Inhibition of amyloid beta (1 to 42) (unknown origin) self-aggregation assessed as absence of fibrillar aggregates at 1:5 amyloid-beta:compound concentration ratio incubated for 72 hrs by high-resolution transmission electron microscopic analysis
[26] = target: Amyloid-beta precursor protein (Homo sapiens) (UniProt P05067); experiment: Inhibition of amyloid beta (1 to 42) (unknown origin) self-aggregation assessed as alpha-helix content at 1:5 amyloid-beta:compound concentration ratio incubated for 48 hrs by CD spectroscopy (reference value: 0 %); set-up: scale not given: the % may be the effect or the level left
[27] = Cytotoxicity against rat PC-12 cells assessed as cell viability at 50 uM by MTT assay relative to control; format: toxicity, cell-based; conditions: read-out: Activity
[28] = target: Amyloid-beta precursor protein (Homo sapiens) (UniProt P05067); experiment: Inhibition of amyloid beta (1 to 40) (unknown origin) self-aggregation assessed as alpha-helix content at 1:5 amyloid-beta:compound concentration ratio incubated for 48 hrs by CD spectroscopy (reference value: 0 %); set-up: scale not given: the % may be the effect or the level left
[29] = target: Amyloid-beta precursor protein (Homo sapiens) (UniProt P05067); experiment: Inhibition of amyloid beta (1 to 42 ) (unknown origin) self-aggregation assessed as decrease in appearance of peak at m/z 685.4383 at 1:5 amyloid-beta:compound concentration ratio incubated for 72 hrs by HRMS-ESI analysis
[30] = target: Amyloid-beta precursor protein (Homo sapiens) (UniProt P05067); experiment: Inhibition of amyloid beta (1 to 42) (unknown origin) self-aggregation assessed as beta-turn content at 1:5 amyloid-beta:compound concentration ratio incubated for 48 hrs by CD spectroscopy (reference value: 44.8 %); set-up: scale not given: the % may be the effect or the level left
[31] = target: Amyloid-beta precursor protein (Homo sapiens) (UniProt P05067); experiment: Inhibition of amyloid beta (1 to 42 ) (unknown origin) self-aggregation assessed as appearance of peak at m/z 507.3270 at 1:5 amyloid-beta:compound concentration ratio incubated for 72 hrs by HRMS-ESI analysis
[32] = target: Amyloid-beta precursor protein (Homo sapiens) (UniProt P05067); experiment: Inhibition of amyloid beta (1 to 42) (unknown origin) self-aggregation assessed as Z-average value measured after 7 days by dynamic light scattering analysis; conditions: time 7.0 day
[33] = target: Amyloid-beta precursor protein (Homo sapiens) (UniProt P05067); experiment: Inhibition of amyloid beta (1 to 42 ) (unknown origin) self-aggregation assessed as appearance of peak at m/z 1224.4239 at 1:5 amyloid-beta:compound concentration ratio incubated for 72 hrs by HRMS-ESI analysis
[34] = target: Amyloid-beta precursor protein (Homo sapiens) (UniProt P05067); experiment: Inhibition of amyloid beta (1 to 42) (unknown origin) self-aggregation assessed as absence of fibrillar aggregates at 1:5 amyloid-beta:compound concentration ratio measured immediately by high-resolution transmission electron microscopic analysis
[35] = target: Amyloid-beta precursor protein (Homo sapiens) (UniProt P05067); experiment: Inhibition of amyloid beta (1 to 42) (unknown origin) self-aggregation assessed as absence of fibrillar aggregates at 1:5 amyloid-beta:compound concentration ratio incubated for 72 hrs by scanning transmission electron microscopic analysis
SH-SY5Y = experiment: Inhibition of amyloid beta (1 to 42)-induced toxicity in human SH-SY5Y cells assessed as cell survival at 50 uM incubated for 24 hrs by MTT assay relative to control; format: functional; conditions: read-out: Survival

Q: Which results are given for `CC[C@H](C)[C@H](NC(=O)[C@H](C)N)C(=O)NC(C)(C)C(=O)N[C@H](C(N)=O)C(C)C` (H-AI[Aib]V-NH2)?
A: Activity [1]: 40.3%; Activity [2]: 23.9%; Activity [3]: 48.4%; inhibition [4]: Active; inhibition [5]: Active; inhibition at 4 µM [6]: 53%; inhibition [7]: Active; Blue Shift Of 2 To 3 Nm And Isoemissive Point At ~427 Nm Observed; Activity [8]: 36.6%; inhibition [9]: 62.7%; viability at 10 µM (PC-12 [10]): 90.2%; Activity [11]: 0%; viability at 2 µM (PC-12 [12]): 66.1%; inhibition [13]: Active; Activity [14]: 0%; inhibition at 2 µM [15]: 7%; viability at 4 µM (PC-12 [16]): 82.8%; Activity [17]: 1.9%; inhibition [18]: Active; inhibition [19]: 80.8%; Activity [20]: 38.1%; viability at 20 µM [21]: 98.5%; Activity [22]: 25.7%; inhibition [23]: Active; Peaks Corresponds To [Amyloidbeta (1 To 42) + M + Na]7+; inhibition at 10 µM [24]: 73%; inhibition [25]: Active; Activity [26]: 14.4%; viability at 50 µM [27]: 97.9%; Activity [28]: 21.6%; inhibition [29]: Active; Peak Corresponds To Aggregates; Activity [30]: 49%; inhibition [31]: Active; Peaks Corresponds To [Amyloidbeta (1 To 42) + M]4+; inhibition [32]: Active; inhibition [33]: Active; Peaks Corresponds To [(Amyloidbeta (21 To 42) + M)4+ ]; inhibition [34]: Active; inhibition [35]: Active

Q: With H-RIIGL-NH2 as the compound, how does the viability at 50 µM (SH-SY5Y) read?
A: 84%
